Experimental data from ChEMBL document CHEMBL1201862, “PubChem BioAssay data set” (2004).
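Following 48 hours of exposure in 96-well plates, responses at five concentrations were used to interpolate endpoints linearly. Abbreviation: GI50, concentration required for 50% inhibition of growth.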 Active and inactive are the calls of the source. Rule as the data show it: active = GI50 up to about 1.1 µM and inactive = higher.

Experiments:
Assay in all cases: inhibition of tumour cell growth, NCI panel, 48 h
SNB-75 = test system: SNB-75
COLO 205 = test system: COLO 205
SK-MEL-2 = test system: SK-MEL-2
K562 = test system: K562
A498 = test system: A498
TK-10 = test system: TK-10
LOX IMVI = test system: LOX IMVI
786-0 = test system: 786-0
OVCAR-4 = test system: OVCAR-4
SK-MEL-5 = test system: SK-MEL-5
UACC-257 = test system: UACC-257
NCI-H460 = test system: NCI-H460
HCT-116 = test system: HCT-116
HOP-92 = test system: HOP-92
HT-29 = test system: HT-29
SN12C = test system: SN12C

Structure (SMILES)	GI50 (SNB-75)	GI50 (COLO 205)	GI50 (SK-MEL-2)	GI50 (K562)	GI50 (A498)	GI50 (TK-10)	GI50 (LOX IMVI)	GI50 (786-0)	GI50 (OVCAR-4)	GI50 (SK-MEL-5)	GI50 (UACC-257)	GI50 (NCI-H460)	GI50 (HCT-116)	GI50 (HOP-92)	GI50 (HT-29)	GI50 (SN12C)
CCOC(=O)C(CCCNC(=O)OC(C)(C)C)N(Cc1ccc(OC)cc1OC)C(=O)CC(=O)CP(=O)(OCC)OCC (stereo unspecified)	> 100 µM (inactive)	> 100 µM (inactive)	> 100 µM (inactive)	> 100 µM (inactive)	> 100 µM (inactive)	> 100 µM (inactive)	> 100 µM (inactive)	> 100 µM (inactive)	> 100 µM (inactive)	> 100 µM (inactive)	> 100 µM (inactive)	> 100 µM (inactive)	> 100 µM (inactive)	16.2 µM (inactive)	> 100 µM (inactive)	> 100 µM (inactive)
COC(=O)C1=C(c2cc(OC)c(OC)c(OC)c2)O[C@H](c2ccc3c(c2)OCO3)[C@H]1COC(C)=O	27.3 µM (inactive)	10.7 µM (inactive)	27.2 µM (inactive)	21.3 µM (inactive)	21.4 µM (inactive)	39.2 µM (inactive)	32.1 µM (inactive)	29.4 µM (inactive)	29 µM (inactive)	9.35 µM (inactive)	40.7 µM (inactive)	30.5 µM (inactive)	–	7.24 µM (inactive)	18.6 µM (inactive)	24.7 µM (inactive)
O=c1c2cc3c(cc2c2cccc4c2n1CCC4)OCO3	26.7 µM (inactive)	26.3 µM (inactive)	> 100 µM (inactive)	45.8 µM (inactive)	–	27.1 µM (inactive)	42.9 µM (inactive)	27 µM (inactive)	88.9 µM (inactive)	42.4 µM (inactive)	33.1 µM (inactive)	37.1 µM (inactive)	23.4 µM (inactive)	55.5 µM (inactive)	51.1 µM (inactive)	36.8 µM (inactive)
O=C(CSc1nnc(Cc2ccccc2)o1)Nc1ccc(Cl)cc1[N+](=O)[O-]	18.9 µM (inactive)	21.9 µM (inactive)	15.9 µM (inactive)	25.6 µM (inactive)	–	17.1 µM (inactive)	13.1 µM (inactive)	16.5 µM (inactive)	18.8 µM (inactive)	16.9 µM (inactive)	19.9 µM (inactive)	> 10 µM (inactive)	14 µM (inactive)	–	22.3 µM (inactive)	17.5 µM (inactive)
CCOC(=O)CNC(SC)=C(C#N)C#N	> 100 µM (inactive)	> 100 µM (inactive)	–	> 100 µM (inactive)	> 100 µM (inactive)	> 100 µM (inactive)	> 100 µM (inactive)	> 100 µM (inactive)	> 100 µM (inactive)	> 100 µM (inactive)	> 100 µM (inactive)	> 100 µM (inactive)	> 100 µM (inactive)	> 100 µM (inactive)	> 100 µM (inactive)	> 100 µM (inactive)
CCOC(=O)C(C(=O)OCC)=c1sc(=C(C(=O)OCC)C(=O)OCC)s1	76.2 µM (inactive)	> 100 µM (inactive)	> 100 µM (inactive)	> 100 µM (inactive)	–	> 100 µM (inactive)	> 100 µM (inactive)	> 100 µM (inactive)	> 100 µM (inactive)	> 100 µM (inactive)	> 100 µM (inactive)	> 100 µM (inactive)	–	> 100 µM (inactive)	> 100 µM (inactive)	> 100 µM (inactive)
O=C1C=C(Nc2ccccc2C(=O)c2ccccc2)c2ccccc2C1=O	96.6 µM (inactive)	> 100 µM (inactive)	> 100 µM (inactive)	–	> 100 µM (inactive)	–	–	> 100 µM (inactive)	89.3 µM (inactive)	–	5.85 µM (inactive)	71 µM (inactive)	> 100 µM (inactive)	4.06 µM (inactive)	> 100 µM (inactive)	42.8 µM (inactive)
C/C(=N\NC(=S)N1CCCCCC1)c1nccnc1C	0.605 µM (active)	< 0.01 µM (active)	12.8 µM (inactive)	0.055 µM (active)	1.58 µM (inactive)	0.56 µM (active)	< 0.01 µM (active)	5.14 µM (inactive)	0.134 µM (active)	0.0292 µM (active)	< 0.01 µM (active)	–	–	–	0.0719 µM (active)	0.285 µM (active)
Cc1[nH]c2c(C)cccc2c1C1Cc2ccccc2N1 (stereo unspecified)	> 100 µM (inactive)	18.2 µM (inactive)	28.8 µM (inactive)	29.2 µM (inactive)	28.6 µM (inactive)	23 µM (inactive)	17.1 µM (inactive)	22.3 µM (inactive)	–	18.5 µM (inactive)	22.3 µM (inactive)	25.1 µM (inactive)	17 µM (inactive)	0.0214 µM (active)	19.5 µM (inactive)	21.2 µM (inactive)
COc1cc2noc(-c3ccccc3)c2cc1OC	4.59 µM (inactive)	55.3 µM (inactive)	75.9 µM (inactive)	50.6 µM (inactive)	20.2 µM (inactive)	80.9 µM (inactive)	40.6 µM (inactive)	29.2 µM (inactive)	> 100 µM (inactive)	46.7 µM (inactive)	> 100 µM (inactive)	42.4 µM (inactive)	60.1 µM (inactive)	44.1 µM (inactive)	36.6 µM (inactive)	34.8 µM (inactive)
Cc1c(CC/C(=N\Nc2ccc([N+](=O)[O-])cc2[N+](=O)[O-])c2ccccc2)c2ccccc2n1C	> 56.1 µM (inactive)	> 100 µM (inactive)	> 100 µM (inactive)	27.4 µM (inactive)	> 100 µM (inactive)	> 100 µM (inactive)	> 100 µM (inactive)	> 100 µM (inactive)	> 100 µM (inactive)	> 100 µM (inactive)	> 100 µM (inactive)	> 100 µM (inactive)	> 100 µM (inactive)	97.7 µM (inactive)	> 100 µM (inactive)	> 100 µM (inactive)
CCOC(=O)C(=O)Nc1nc2ccc(C)cc2s1	> 100 µM (inactive)	> 100 µM (inactive)	> 100 µM (inactive)	> 100 µM (inactive)	> 100 µM (inactive)	–	–	27.9 µM (inactive)	> 100 µM (inactive)	> 100 µM (inactive)	> 100 µM (inactive)	> 100 µM (inactive)	> 100 µM (inactive)	> 100 µM (inactive)	> 100 µM (inactive)	> 100 µM (inactive)
CCCCCCCCCCCCCC(=O)NCC(OCC)OCC	> 100 µM (inactive)	> 100 µM (inactive)	> 100 µM (inactive)	–	> 100 µM (inactive)	> 100 µM (inactive)	> 100 µM (inactive)	> 100 µM (inactive)	> 100 µM (inactive)	> 100 µM (inactive)	> 100 µM (inactive)	> 100 µM (inactive)	> 100 µM (inactive)	> 100 µM (inactive)	> 100 µM (inactive)	> 100 µM (inactive)
COc1ccc(C(Cc2cc(OC)c(OC)c(OC)c2)C(=O)O)cc1 (stereo unspecified)	22.8 µM (inactive)	> 100 µM (inactive)	52 µM (inactive)	40.4 µM (inactive)	56.5 µM (inactive)	> 100 µM (inactive)	> 100 µM (inactive)	71.8 µM (inactive)	> 100 µM (inactive)	25.9 µM (inactive)	54.3 µM (inactive)	45.7 µM (inactive)	41.5 µM (inactive)	–	37.6 µM (inactive)	> 100 µM (inactive)
Cc1cc(Br)ccc1NC1=CC(=O)C(=O)c2ccccc21	41.1 µM (inactive)	31.6 µM (inactive)	23.6 µM (inactive)	51.4 µM (inactive)	86.7 µM (inactive)	99.8 µM (inactive)	21.4 µM (inactive)	38.5 µM (inactive)	9.08 µM (inactive)	20 µM (inactive)	15.9 µM (inactive)	27.9 µM (inactive)	52.7 µM (inactive)	–	51.2 µM (inactive)	60.1 µM (inactive)
N#CC(C(=N/NC(N)=S)/C(=N\NC(N)=S)C(C#N)c1ccccc1)c1ccccc1 (stereo unspecified)	> 10 µM (inactive)	> 10 µM (inactive)	> 10 µM (inactive)	> 10 µM (inactive)	> 10 µM (inactive)	> 10 µM (inactive)	> 10 µM (inactive)	> 10 µM (inactive)	> 10 µM (inactive)	–	> 10 µM (inactive)	> 10 µM (inactive)	> 10 µM (inactive)	> 10 µM (inactive)	> 10 µM (inactive)	> 10 µM (inactive)
COc1ccc(S(=O)(=O)N/N=C/CN2C(=O)c3ccccc3C2=O)cc1	> 100 µM (inactive)	> 100 µM (inactive)	> 100 µM (inactive)	> 100 µM (inactive)	> 100 µM (inactive)	> 10 µM (inactive)	> 100 µM (inactive)	> 100 µM (inactive)	> 100 µM (inactive)	> 100 µM (inactive)	> 100 µM (inactive)	> 100 µM (inactive)	–	–	> 100 µM (inactive)	> 100 µM (inactive)
O=C1c2ccccc2N2OC3(N4CCCC4)CCCCC3C12c1ccccc1 (stereo unspecified)	34.1 µM (inactive)	17.3 µM (inactive)	–	19.5 µM (inactive)	> 100 µM (inactive)	–	–	17.7 µM (inactive)	14.5 µM (inactive)	15.1 µM (inactive)	19.3 µM (inactive)	–	14.4 µM (inactive)	16.1 µM (inactive)	21.8 µM (inactive)	16.9 µM (inactive)
COc1cc(/C=C2\CCc3ccccc3C2=O)cc(OC)c1OC	22.2 µM (inactive)	17 µM (inactive)	15.8 µM (inactive)	8.43 µM (inactive)	–	17.8 µM (inactive)	11.9 µM (inactive)	15.7 µM (inactive)	23.9 µM (inactive)	12.6 µM (inactive)	14.3 µM (inactive)	16.9 µM (inactive)	14.1 µM (inactive)	11.1 µM (inactive)	17.5 µM (inactive)	18 µM (inactive)
